One experiment deals with CDK6/Cyclin D3 (Homo sapiens (Human), UniProt Q00534). Description: CDK6/Cyclin D3 ADP-Glo Kinase Assay. The note with it: 100 uM ATP, read-out: CDK6/ CyclinD3 IC50. Format: biochemical. The procedure: CDK6/Cyclin D3 ADP-Glo Kinase Assay
The purpose of the CDK6/Cyclin D3 assay is to evaluate the inhibition (% inhibition and IC50 values) in the presence of small molecule inhibitors by using a Luminescent based ADP-Glo assay. CDK6/Cyclin D3 catalyzes the production of ADP from ATP. ADP-Glo assay monitors ADP producing biochemical reactions. ADP-Glo is performed in 2 steps upon completion of kinase reaction: a combined termination of kinase reaction and depletion of remaining ATP in the first step, and conversion of generated ADP to ATP and the newly produced ATP to light output using luciferase/luciferin reaction in the second step. The luminescent signal generated is proportional to the ADP concentration produced and is correlated with the kinase activity. CDK6/Cyclin D3 was purchased from Carna. […] The assay was initiated with the addition of ATP-containing substrate solution, following a 30-minute pre-incubation of enzyme and inhibitor at room temperature in the reaction mixture. The reaction was stopped after 90 minutes at room temperature by the addition of 10 uL of ADP-GLO Reagent. After a 90-minute incubation, 20 uL of Kinase Detection Reagent was added. Samples were incubated for 40 minutes, after which plate well luminescence was measured on a Envision microplate reader. The IC50 determinations were made from a plot of the fractional velocity as a function of inhibitor concentration fit to the 4 parameters IC50 equation.
Background: In ADP-Glo the light output rises with the ADP produced.

For experiment [1], the target named is CDK2/Cyclin E1 full length (Homo sapiens (Human), UniProt P24941). The experiment in a line: CDK2/Cyclin E1 Full Length ADP-Glo Kinase Assay. Format: biochemical. As to conditions: 20 uM ATP, read-out: CDK2/ CyclinE1 IC50. As for the experimental part:
CDK2/Cyclin E1 Full Length ADP-Glo Kinase Assay
The purpose of CDK2/Cyclin E1 assay is to evaluate the inhibition (% inhibition and IC50 values) of small molecule inhibitors by using a Luminescent based ADP-Glo assay. CDK2/Cyclin E1 full length catalyzes the production of ADP from ATP. ADP-Glo assay monitors ADP producing biochemical reactions. ADP-Glo is performed in 2 steps upon completion of kinase reaction: a combined termination of kinase reaction and depletion of remaining ATP in the first step, and conversion of generated ADP to ATP and the newly produced ATP to light output using luciferase/luciferin reaction in the second step. The luminescent signal generated is proportional to the ADP concentration produced and is correlated with the kinase activity. CDK2/Cyclin E1 was purchased from Eurofins (Cat 14-475M). Typical reaction solutions (10 uL final reaction volume) contained 2% DMSO (f inhibitor), 10 mM MgCI2, 1 mM EGTA, 0.05% BSA, 2 mM DTT, 20 uM ATP (ATP Km=64.78 uM), 0.01% Brig-35, 0.75 uM substrate, and 0.328 nM wild-type full length CDK2/Cyclin E1 enzyme complex in 50 mM HEPES buffer at pH 7.5. The assay was initiated with the addition of ATP-containing substrate solution, following a 30-minute pre-incubation of enzyme and inhibitor at room temperature in the reaction mixture. The reaction was stopped after 90 minutes at room temperature by the addition of 10 uL of ADP-GLO Reagent. After a 90 minute incubation, 20 uL of Kinase Detection Reagent was added. Samples were incubated for 40 minutes, after which plate well luminescence was measured on a Envision microplate reader. The IC50 determinations were made from a plot of the fractional velocity as a function of inhibitor concentration fit to the 4 parameters IC50 equation.

The target of a further experiment is CDK1/Cyclin B1 (Homo sapiens (Human), UniProt P06493). Description: CDK1/Cyclin B1 ADP-Glo Kinase Assay. Format: biochemical. As to conditions: 80 uM ATP. As for the experimental part: CDK1/Cyclin B1 ADP-Glo Kinase Assay
The purpose of CDK1/Cyclin B1 assay is to evaluate the inhibition (% inhibition and IC50 values) of small molecule inhibitors by using a Luminescent based ADP-Glo assay. CDK1/Cyclin B1 catalyzes the production of ADP from ATP. ADP-Glo assay monitors ADP producing biochemical reactions. ADP-Glo is performed in 2 steps upon completion of kinase reaction: a combined termination of kinase reaction and depletion of remaining ATP in the first step, and conversion of generated ADP to ATP and the newly produced ATP to light output using luciferase/luciferin reaction in the second step. The luminescent signal generated is proportional to the ADP concentration produced and is correlated with the kinase activity. CDK1/Cyclin B1 was purchased from Carna (Cat 04-102). Typical reaction solutions (10 uL final reaction volume) contained 2% DMSO (f inhibitor), 10 mM MgCl2, 1 mM EGTA, 0.05% BSA, 2 mM DTT, 80 uM ATP (ATP Km=78.6 uM), 0.01% Brig-35, 0.75 uM substrate, and 4.917 nM CDK1/Cyclin Bl enzyme complex in 50 mM HEPES buffer at pH 7.5. The assay was initiated with the addition of ATP-containing substrate solution, following a 30-minute pre-incubation of enzyme and inhibitor at room temperature in the reaction mixture. The reaction was stopped after 90 minutes at room temperature by the addition of 10 uL of ADP-GLO Reagent. After a 90 minute incubation, 20 uL of Kinase Detection Reagent was added. Samples were incubated for 40 minutes, after which plate well luminescence was measured on a Envision microplate reader. The IC50 determinations were made from a plot of the fractional velocity as a function of inhibitor concentration fit to the 4 parameters IC50 equation.

The next experiment concerns OVCAR-3 cells. The experiment in a line: Cell Growth Inhibition, OVCAR-3 (CellTiterGlo, 6 days). Format: cell-based. As to conditions: OVCAR-3, 6-day treatment, CellTiterGlo 2.0. The source says:
(§1) MCF-7 and OVCAR-3 cells were used to evaluate the anti-proliferation activity of the CDK inhibitors. MCF-7 (ATCC, HTB-22) cells are epithelial cells from a patient with ER+ metastatic adenocarcinoma. OVCAR-3 (ATCC, HTB-161) cells were derived from malignant ascites of a patient with ovarian cancer and are known to have CCNE1 amplification. Both cell lines were maintained in RPMI media supplemented with 10% fetal bovine serum. For cell growth inhibition assay, CDK inhibitors in DMSO solution were dispensed with either Echo 655 (Beckman Coulter) or Tecan D300e (HP) into 384-well plates (Corning #3765) and the 384-well plates were UV-sterilized prior to the assay. The inhibitors were typically tested in the 10-10,000 nM concentration range with half-log serial dilutions. MCF-7 or OVCAR-3 (500 cells/30 μL/well) were added to each well using Multidrop Combi (ThermoFisher) using standard cassettes. The assay plates with cells were cultured at 37° C., 5% CO2 for 6 days. At the end of the 6-day treatment, 30 μL of CellTiterGlo 2.0 (Promega) was added to each well and the luminescent signal was read using CLARIOstar plus (BMG). The percentage of cell growth inhibition (% CGI) was calculated using the following formula % CGI=100−100×luminescencesample/luminescencecontrol. The half maximal inhibitory concentration (IC50) was determined by nonlinear curve fitting (four parameters, variable slope).
A general note: Cellular ATP, detected with luciferase, serves as a proxy for viable cell number.

Another experiment has as its system MCF-7 cells. Description: Cell Growth Inhibition, MCF-7 (CellTiterGlo, 6 days). The note with it: MCF-7, 6-day treatment, CellTiterGlo 2.0. Format: cell-based.
Excerpt: as §1

The target in the next experiment is CDK4/Cyclin D1 (Homo sapiens (Human), UniProt P11802). The experiment in a line: CDK4/Cyclin D1 CHEF Assay (AQT0258 peptide). As to conditions: 200 uM ATP, read-out: CDK4/ CyclinD1 AQT IC50. Format: biochemical. The source says:
CDK4/Cyclin D1 CHEF Assay
The purpose of CDK4/Cyclin Dl assay is to evaluate the inhibition (% inhibition and IC50 values) of small molecule inhibitors by using a Chelation-Enhance Fluorescence (CHEF) assay. In a CHEF assay, phosphorylation of a peptide substrate results in proportional increase in fluorescence. CHEF kinase assay use peptide substrates containing a synthetic alpha-amino acid with a side chain bearing an 8-hydroxyquinoline derivative (sulfonamido-oxide, Sox). Upon phosphorylation of a nearby serine, threonine or tyrosine and in the presence of Mg(II), the spectral properties of the Sox residue are altered, emitting 485 nm wavelength light when excited with a 360 nm wavelength light source. CDK4/Cyclin D1 catalyzes the phosphoryl transfer to the SOX-labeled substrate peptide AQT0258 from Assayquant Technologies. Typical reaction solutions contained 2% DMSO (+/−inhibitor), 10 mM MgCl2, 1 mM DTT, 200 uM ATP (ATP Km=195.2 uM), 0.012% Brig-35, 10 uM AQT0258 peptide, 0.02% BSA, 1% Glycerol, 0.55 mM EGTA, 2.5 nM CDK4/Cyclin D1 in 54 mM HEPES buffer at pH 7.5. The reaction was initiated with the addition of substrate solution, following a 30-minute pre-incubation of enzyme and inhibitor at 22° C. in the reaction mix. Reactions were allowed to proceed for 3 hrs at 22° C., followed by fluorescence read of the reaction. The IC50 determinations were made from a plot of the fractional velocity as a function of inhibitor concentration fit to the 4 parameters IC50 equation.

Sequence of CDK1/Cyclin B1 (P06493 whole entry): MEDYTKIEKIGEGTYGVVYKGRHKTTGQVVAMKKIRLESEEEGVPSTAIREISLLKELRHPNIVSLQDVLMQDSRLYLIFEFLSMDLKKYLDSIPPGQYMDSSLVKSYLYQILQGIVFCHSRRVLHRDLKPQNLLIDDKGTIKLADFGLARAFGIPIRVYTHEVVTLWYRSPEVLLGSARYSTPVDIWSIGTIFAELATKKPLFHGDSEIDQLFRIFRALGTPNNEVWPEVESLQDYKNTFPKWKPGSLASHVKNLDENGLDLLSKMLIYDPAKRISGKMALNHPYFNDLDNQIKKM
Sequence of CDK1/Cyclin B1 (P14635 whole entry partner): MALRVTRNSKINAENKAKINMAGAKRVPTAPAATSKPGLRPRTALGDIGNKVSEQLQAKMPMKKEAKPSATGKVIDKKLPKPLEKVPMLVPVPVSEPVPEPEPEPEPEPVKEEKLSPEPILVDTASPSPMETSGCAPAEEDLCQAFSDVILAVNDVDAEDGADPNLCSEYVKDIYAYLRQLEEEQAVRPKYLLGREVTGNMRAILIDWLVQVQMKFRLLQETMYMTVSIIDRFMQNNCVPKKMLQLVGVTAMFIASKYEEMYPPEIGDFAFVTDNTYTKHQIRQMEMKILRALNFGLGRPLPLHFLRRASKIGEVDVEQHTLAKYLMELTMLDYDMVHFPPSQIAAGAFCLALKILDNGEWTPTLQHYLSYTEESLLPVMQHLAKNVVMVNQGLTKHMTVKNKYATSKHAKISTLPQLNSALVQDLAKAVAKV
Sequence of CDK6/Cyclin D3 (Q00534 whole entry): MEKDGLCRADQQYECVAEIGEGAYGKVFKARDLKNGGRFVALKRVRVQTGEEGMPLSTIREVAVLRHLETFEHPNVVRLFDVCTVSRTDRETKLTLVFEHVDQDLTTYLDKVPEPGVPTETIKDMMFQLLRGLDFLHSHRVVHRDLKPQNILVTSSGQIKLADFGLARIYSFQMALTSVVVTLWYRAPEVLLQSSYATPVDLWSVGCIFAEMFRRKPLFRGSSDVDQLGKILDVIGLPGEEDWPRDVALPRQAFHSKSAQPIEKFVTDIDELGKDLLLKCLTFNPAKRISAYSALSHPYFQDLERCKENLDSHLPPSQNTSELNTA
Sequence of CDK6/Cyclin D3 (P30281 whole entry partner): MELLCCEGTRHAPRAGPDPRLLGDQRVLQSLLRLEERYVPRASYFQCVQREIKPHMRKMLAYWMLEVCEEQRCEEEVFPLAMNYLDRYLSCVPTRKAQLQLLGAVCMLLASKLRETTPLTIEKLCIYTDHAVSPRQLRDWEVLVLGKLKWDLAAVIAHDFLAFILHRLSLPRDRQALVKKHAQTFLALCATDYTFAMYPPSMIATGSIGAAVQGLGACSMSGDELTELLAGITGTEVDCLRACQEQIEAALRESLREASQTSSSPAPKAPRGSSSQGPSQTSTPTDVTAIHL
Sequence of CDK4/Cyclin D1 (P11802 whole entry): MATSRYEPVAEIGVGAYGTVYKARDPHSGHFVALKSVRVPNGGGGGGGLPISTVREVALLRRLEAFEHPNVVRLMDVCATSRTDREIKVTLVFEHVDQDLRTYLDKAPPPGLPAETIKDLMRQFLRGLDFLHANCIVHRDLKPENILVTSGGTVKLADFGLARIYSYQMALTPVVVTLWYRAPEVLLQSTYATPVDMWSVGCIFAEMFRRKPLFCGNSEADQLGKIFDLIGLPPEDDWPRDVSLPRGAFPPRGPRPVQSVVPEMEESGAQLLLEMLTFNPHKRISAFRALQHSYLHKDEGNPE
Sequence of CDK4/Cyclin D1 (P24385 whole entry partner): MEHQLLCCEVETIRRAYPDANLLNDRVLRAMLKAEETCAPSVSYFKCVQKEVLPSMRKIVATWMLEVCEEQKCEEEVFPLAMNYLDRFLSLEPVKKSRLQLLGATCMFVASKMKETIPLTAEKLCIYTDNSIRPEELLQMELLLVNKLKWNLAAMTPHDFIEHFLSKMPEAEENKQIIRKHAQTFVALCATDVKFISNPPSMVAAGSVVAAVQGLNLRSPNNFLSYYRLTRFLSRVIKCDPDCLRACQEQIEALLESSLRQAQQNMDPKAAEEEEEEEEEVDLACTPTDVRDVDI

As for `CN1CC2(CCN(c3cc(C(F)F)cc4cnc(Nc5ccc6c(c5)CN(S(C)(=O)=O)C6)nc34)C2)C1` [Example 73, 6-(difluoromethyl)-8-(2-methyl-2,6-diazaspiro[3.4]octan-6-yl)-(methylsulfonyl)N-(2-isoindolin-5-yl)quinazolin-2amine], the IC50 is less than 200 nM on CDK6/Cyclin D3; less than 200 nM in experiment [1]; less than 200 nM against CDK1/Cyclin B1; 500 to 2000 nM in the experiment with OVCAR-3 cells; 200 to 500 nM in the experiment on MCF-7 cells; less than 200 nM at CDK4/Cyclin D1.
On to `CS(=O)(=O)N1CCC(Nc2ncc3cccc(C4CC(O)(C(F)F)C4)c3n2)CC1` (stereo not drawn) [Example 120, 1-(difluoromethyl)-3-(2-((1-(methylsulfonyl)piperidin-4-yl)amino)quinazolin-8-yl)cyclobutan-1-ol], for which the IC50 was less than 200 nM at CDK6/Cyclin D3; less than 200 nM in experiment [1]; less than 200 nM on CDK1/Cyclin B1; 200 to 500 nM in the experiment on OVCAR-3 cells (Homo sapiens, 144 h); 500 to 2000 nM in the experiment with MCF-7 cells (Homo sapiens, MCF7, 144 h); less than 200 nM at CDK4/Cyclin D1.
Consider `CN1Cc2ccc(Nc3ncc4cc(C(F)F)cc(N5CCC6(CN(C)C6)C5)c4n3)cc2C1` [Example 66, 6-(difluoromethyl)-8-(2-methyl-2,6-diazaspiro[3.4]octan-6-yl)-N-(2-methylisoindolin-5-yl)quinazolin-2-amine], for which the IC50 on CDK6/Cyclin D3 was less than 200 nM; in experiment [1] it was less than 200 nM; against CDK1/Cyclin B1, 500 to 2000 nM; with OVCAR-3 cells (Homo sapiens, 144 h) it was 500 to 2000 nM; with MCF-7 cells (Homo sapiens, MCF7, 144 h) it was 500 to 2000 nM; on CDK4/Cyclin D1, less than 200 nM.
Take `O=S(=O)(CC1CCC1)N1CCC(Nc2ncc3cc(C(F)F)cc(N4CC5(CCNC5)C4)c3n2)CC1` [Example 86, N-(1-((cyclobutylmethyl)sulfonyl)piperidin-4-yl)-6-(difluoromethyl)-8-(2,6-diazaspiro[3.4]octan-2-yl)quinazolin-2-amine]: the IC50 is less than 200 nM at CDK6/Cyclin D3; less than 200 nM in experiment [1]; less than 200 nM on CDK1/Cyclin B1; 500 to 2000 nM in the experiment on OVCAR-3 cells (Homo sapiens, 144 h); 500 to 2000 nM in the experiment with MCF-7 cells (Homo sapiens, MCF7, 144 h); less than 200 nM on CDK4/Cyclin D1.
With `CS(=O)(=O)N1CCC(Nc2ncc3cc(C(F)F)cc(C4CC5(CCN(CCC(F)(F)F)C5)C4)c3n2)CC1` (stereo not drawn) [Example 101, 6-(difluoromethyl)-N-(1-(methylsulfonyl)piperidin-4-yl)-8-(6-(3,3,3-trifluoropropyl)-6-azaspiro[3.4]octan-2-yl)quinazolin-2-amine], the IC50 on CDK6/Cyclin D3 is less than 200 nM; in experiment [1] it was less than 200 nM; against CDK1/Cyclin B1, less than 200 nM; in the experiment with OVCAR-3 cells (Homo sapiens, 144 h) it was 500 to 2000 nM; with MCF-7 cells (Homo sapiens, MCF7, 144 h) it was 200 to 500 nM; on CDK4/Cyclin D1 it was less than 200 nM.
In the case of `O=S(=O)(N1CCC(Nc2ncc3cc(C(F)F)cc(N4CCC5(CNC5)C4)c3n2)CC1)C1(C(F)F)CC1` [Example 88, 6-(difluoromethyl)-N-(1-((1-(difluoromethyl)cyclopropyl)sulfonyl)piperidin-4-yl)-8-(2,6-diazaspiro[3.4]octan-6-yl)quinazolin-2-amine], the IC50 is less than 200 nM at CDK6/Cyclin D3; less than 200 nM in experiment [1]; less than 200 nM at CDK1/Cyclin B1; 200 to 500 nM in the experiment with OVCAR-3 cells (Homo sapiens, 144 h); 200 to 500 nM with MCF-7 cells (Homo sapiens, MCF7, 144 h); less than 200 nM on CDK4/Cyclin D1.
In the case of `CN1CC2(CCN(c3cc(C(F)F)cc4cnc(NC5CCN(S(C)(=O)=O)CC5)nc34)C2)C1` [Example 62, 6-(difluoromethyl)-8-(2-methyl-2,6-diazaspiro[3.4]octan-6-yl)-N-(1-(methylsulfonyl)piperidin-4-yl)quinazolin-2-amine], the IC50 was less than 200 nM at CDK6/Cyclin D3; less than 200 nM in experiment [1]; 200 to 500 nM against CDK1/Cyclin B1; 500 to 2000 nM in the experiment with OVCAR-3 cells (Homo sapiens, 144 h); less than 200 nM in the experiment with MCF-7 cells (Homo sapiens, MCF7, 144 h); less than 200 nM at CDK4/Cyclin D1.
On to `O=S(=O)(C1CC1)N1CCC(Nc2ncc3cc(C(F)F)cc(N4CC5(CCCNC5)C4)c3n2)CC1` [Example 80, N-(1-(cyclopropylsulfonyl)piperidin-4-yl)-6-(difluoromethyl)-8-(2,6-diazaspiro[3.5]nonan-2-yl)quinazolin-2-amine], for which the IC50 on CDK6/Cyclin D3 is less than 200 nM; in experiment [1] it was less than 200 nM; on CDK1/Cyclin B1, less than 200 nM; in the experiment on OVCAR-3 cells (Homo sapiens, 144 h) it was 200 to 500 nM; in the experiment with MCF-7 cells (Homo sapiens, MCF7, 144 h), 200 to 500 nM; at CDK4/Cyclin D1 it was less than 200 nM.
